Experimental findings from US11505592B2, “Diagnosis and therapy of multiple sclerosis” (PRINDEX S.R.L., priority 2015, dated 2022) are described below.

In one test the test system is MS sera. The test is described as follows: PEPSCAN-based ELISA, binding of MS sera to library peptides. The following applies: ELISA binding value, MS sera n = 9. Further details: species or system human. From the text:
(§1) The linear and CLIPS peptides are synthesized based on the amino acid sequence of the target protein using standard Fmoc-chemistry and deprotected using […] with scavengers. The constrained peptides are synthesized on chemical scaffolds in order to reconstruct conformational epitopes, using Chemically Linked Peptides on Scaffolds (CLIPS) technology (Timmerman et al. (2007). For example, the single looped peptides are synthesized containing a dicysteine, which was cyclized by treating with alpha, alpha′-dibromoxylene and the size of the loop is varied by introducing cysteine residues at variable spacing. If other cysteines besides the newly introduced cysteines are present, they are replaced by alanine. The side-chains of the multiple cysteines in the peptides are coupled to CLIPS templates by reacting onto credit-card format polypropylene PEPSCAN cards (455 peptide formats/card) with a 0.5 mM solution of CLIPS template such as 1,3-bis (bromomethyl) benzene in ammonium bicarbonate (20 mM, pH 7.9)/acetonitrile (1:1(v/v)). The cards are gently shaken in the solution for 30 to 60 minutes while completely covered in solution. Finally, the cards are washed extensively with excess of H2O and sonicated in distrupt-buffer containing 1 percent SDS/0.1 percent beta-mercaptoethanol in PBS (pH 7.2) at 70° C. for 30 minutes, followed by sonication in H2O for another 45 minutes.
(§2) The binding of antibody to each peptide is tested in a PEPSCAN-based ELISA. The 455-well credit card format polypropylene cards containing the covalently linked peptides are incubated with primary antibody solution for example consisting of 1/1000 diluted serum in blocking solution, for example 4% horse serum, 5% ovalbumin (w/v) in PBS/1% Tween. After washing, the peptides are incubated with a 1/1000 dilution of antibody peroxidase conjugate for one hour at 25° C. After washing, the peroxidase substrate 2,2′-azino-di-3-ethylbenzthiazoline sulfonate (ABTS) and 2 microlitres of 3 percent H2O2 are added. After one hour, the color development are measured. The color development are quantified with a charge coupled device (CCD)-camera and an image processing system (Slootstra et al., 1996).
(§3) The raw data are optical values obtained by a CCD-camera calibrated to export absorption values compatible with a standard 96-well plate ELISA-reader. First the CCD-camera makes a picture of the card before peroxidase coloring and then again a picture after the peroxidase coloring. These two pictures are substracted from each other yielding a binding value for each peptide.
(§4) All peptides have been synthesized in a peptide array format and the binding of 20 different sera to all peptide libraries were measured in an ELISA based set up following the procedure described in detail in the method section “Peptide synthesis and screening assays”. In particular 2 sets of experiments were performed on the 2 libraries by using 2 different dilutions of the human patients sera. In the first set of experiment the 20 sera were used at 1:2500 dilutions, while in the second experiment the dilution of the sera was 1:1000. The binding of the different sera to all peptides was quantified and analyzed in detail (Tables 1 and 2, FIGS. 15A, B, C, D and […]
For orientation: ELISA stands for enzyme-linked immunosorbent assay.

Another test has as its system CTRL sera. In words: PEPSCAN-based ELISA, binding of control (CTRL) sera to library peptides. Further details: species or system human. The following applies: ELISA binding value, CTRLs n = 10.
Description: as §1, §2, §3, §4

On to “CMDILSEENTSLSSCMQLNDDTRLYSNDC [Peptide 21]”, for which, in the test on MS sera (5HT2A receptor library), the “MEAN MS” value was found to be 392.28. Further, in the test with CTRL sera (5HT2A receptor library), the “MEAN CTRL” value came to 223.85.

As for “CMDILSEENTSLSSCSKESSNEDVIGALC [Peptide 44]”, the “MEAN MS” value in the test with MS sera (5HT2A receptor library) is listed as 432.33. For the same sequence, the “MEAN CTRL” value in the test on CTRL sera (5HT2A receptor library) came to 266.55.

For “CMQLNDDTRLYSNDCMDILSEENTSLSSC [Peptide 9]”, the “MEAN MS” value in the test with MS sera (5HT2A receptor library) is listed as 379.67. The “MEAN CTRL” value in the test on CTRL sera (5HT2A receptor library) is 212.40.

Turning to “CMQLNDDTRLYSNDCSGEANTSDAFNWTC [Peptide 15]”, the “MEAN MS” value in the test on MS sera (5HT2A receptor library) stood at 497.78. In addition, in the test with CTRL sera (5HT2A receptor library), the “MEAN CTRL” value turned out to be 257.25.

Turning to “CNDDTRLYSNDFNSCMDILSEENTSLSSC [Peptide 24]”, in the test with MS sera (5HT2A receptor library), the “MEAN MS” value is listed as 350.67. In addition, the “MEAN CTRL” value in the test with CTRL sera (5HT2A receptor library) is on record as 196.45.

Regarding CNESYLNFARKAAKNPC [SEQ ID NO: 86], in the test with MS sera (NOX2 library), the “MEAN MS” value worked out at 702.222. Moreover, the “MEAN CTRL” value in the test with CTRL sera (NOX2 library) worked out at 411.15.

Take CNFARKRIKNC [SEQ ID NO: 60]: the “MEAN MS” value with MS sera (NOX2 library) was determined as 748.389. In addition, the “MEAN CTRL” value in the test on CTRL sera (NOX2 library) is on record as 374.6.

Consider “CNFARKRIKNPEGGLYCGDRQNESYLNFARKRC [SEQ ID NO: 117]”, for which the “MEAN MS” value in the test with MS sera (NOX2 library) amounted to 800.500. Also, the “MEAN CTRL” value with CTRL sera (NOX2 library) amounted to 425.15.

Turning to “CNFARKRIKNPEGGLYCQNESYLNFARKRIKNC [SEQ ID NO: 65]”, in the test on MS sera (NOX2 library), the “MEAN MS” value was found to be 801.056. In addition, in the test with CTRL sera (NOX2 library), the “MEAN CTRL” value is listed as 410.85.

For “CNFARKRIKNPEGGLYCSLAVHNITVSEQKISC [SEQ ID NO: 106]”, the “MEAN MS” value in the test on MS sera (NOX2 library) was 599.000. Besides, the “MEAN CTRL” value in the test with CTRL sera (NOX2 library) was found to be 330.8.

With “CNFARKRIKNPEGGLYCSYLNFARKRIKNPEGC [SEQ ID NO: 97]”, the “MEAN MS” value in the test with MS sera (NOX2 library) worked out at 752.333. Moreover, the “MEAN CTRL” value with CTRL sera (NOX2 library) is listed as 416.6.

As for CNITVSEQKISAAGKIC [SEQ ID NO: 105], the “MEAN MS” value in the test with MS sera (NOX2 library) worked out at 828.167. In addition, the “MEAN CTRL” value with CTRL sera (NOX2 library) is on record as 460.55.

On to “CNITVSEQKISEWGKICGDRQNESYLNFARKRC [SEQ ID NO: 144]”, for which the “MEAN MS” value with MS sera (NOX2 library) amounted to 816.722. Also, in the test on CTRL sera (NOX2 library), the “MEAN CTRL” value came to 446.7.

With “CNITVSEQKISEWGKICQNESYLNFARKRIKNC [SEQ ID NO: 81]”, the “MEAN MS” value with MS sera (NOX2 library) is listed as 770.889. Further, the “MEAN CTRL” value with CTRL sera (NOX2 library) was found to be 408.8.

On to “CNITVSEQKISEWGKICSYLNFARKRIKNPEGC [SEQ ID NO: 99]”, for which the “MEAN MS” value in the test with MS sera (NOX2 library) worked out at 738.444. In addition, the “MEAN CTRL” value with CTRL sera (NOX2 library) is recorded as 397.7.

Regarding “CNSDPYSVALSELGDRCITVSEQKISEWGKIKC [SEQ ID NO: 143]”, the “MEAN MS” value with MS sera (NOX2 library) worked out at 781.611. Further, in the test on CTRL sera (NOX2 library), the “MEAN CTRL” value is 456.45.

Regarding “CNSDPYSVALSELGDRCVSEQKISEWGKIKESC [SEQ ID NO: 130]”, in the test with MS sera (NOX2 library), the “MEAN MS” value is 764.528. Further, the “MEAN CTRL” value with CTRL sera (NOX2 library) is reported as 434.925.

As to “CNSLMQLNDDTRLYCLSSEGSLSPSSLSC [Peptide 6]”, the “MEAN MS” value in the test with MS sera (5HT2A receptor library) is on record as 418.89. Besides, the “MEAN CTRL” value in the test on CTRL sera (5HT2A receptor library) worked out at 249.55.

As for “CNSLMQLNDDTRLYCMDILSEENTSLSSC [Peptide 1]”, the “MEAN MS” value in the test with MS sera (5HT2A receptor library) was 445.78. In addition, in the test on CTRL sera (5HT2A receptor library), the “MEAN CTRL” value worked out at 252.10.

For the sequence “CNSLMQLNDDTRLYCYSNDFNSGEANTSC [Peptide 34]”, the “MEAN MS” value in the test with MS sera (5HT2A receptor library) was 459.72. In the test with CTRL sera (5HT2A receptor library), the “MEAN CTRL” value is 268.10.

In the case of “CNSLMQLNDTRLYCSGEANTSDAFNWTC [Peptide 19]”, the “MEAN MS” value in the test on MS sera (5HT2A receptor library) is 564.11. Moreover, in the test with CTRL sera (5HT2A receptor library), the “MEAN CTRL” value came out at 299.55.

With “CPYSVALSELGDRQNECITVSEQKISEWGKIKC [SEQ ID NO: 124]”, the “MEAN MS” value with MS sera (NOX2 library) is given as 824.056. In addition, the “MEAN CTRL” value in the test with CTRL sera (NOX2 library) is listed as 469.75.

Consider CQKISEWGKIKAAPIPC [SEQ ID NO: 153], for which the “MEAN MS” value in the test on MS sera (NOX2 library) stood at 710.778. Besides, the “MEAN CTRL” value with CTRL sera (NOX2 library) turned out to be 402.15.

In the case of “CQKISEWGKIKESPIPCQNESYLNFARKRIKNC [SEQ ID NO: 69]”, in the test with MS sera (NOX2 library), the “MEAN MS” value turned out to be 855.111. Also, the “MEAN CTRL” value with CTRL sera (NOX2 library) was 458.3.

“CQKISEWGKIKESPIPCTVSEQKISEWGKIKEC [SEQ ID NO: 93]”: the “MEAN MS” value with MS sera (NOX2 library) is reported as 846.833. In addition, in the test with CTRL sera (NOX2 library), the “MEAN CTRL” value amounted to 476.45.

Turning to “CQKISEWGKIKESPIPCVHNITVSEQKISEWGC [SEQ ID NO: 149]”, the “MEAN MS” value in the test with MS sera (NOX2 library) is listed as 442.611. Besides, in the test on CTRL sera (NOX2 library), the “MEAN CTRL” value is listed as 263.25.
